Results taken from article PMC6269118, “Populene D Analogues: Design, Concise Synthesis and Antiproliferative Activity” (Molecules, 2012).
In brackets after ≈: the same amount, converted by molar mass. Where two headings read alike, the source gives them in different places.

Key:
[1] = system: PC-3 (prostate) cells; assay: Antiproliferative sulforhodamine B assay, PC-3; assay type: cell-based; conditions: Homo sapiens, Prostate cell, 48 h treatment, SRB; for IC100: read-out: Total growth inhibition (TGI)
Description: (§1) The populene D analogues were tested at concentrations between 0.25 and 250 µg/mL and doxorubicin (DOX 0.025–25 µg/mL) was used as positive control. […] To analyze the GI50 parameter, mean log GI50 was calculated by conversion of the GI50 values for each tumor cell line tested (not including the normal cell line HaCat) against a test compound and then these values were averaged.
(§2) Stock cultures were grown in 5 mL of RPMI 1640 (GIBCO BRL, Life Technologies) supplemented with 5% of fetal bovine serum. Penicillin:streptomycin (1,000 μg mL^−1:1,000 UI mL^‑1, 1 mL L^−1) was added to the experimental cultures.
(§3) Afterwards cells were fixed with 50% trichloroacetic acid and cell proliferation determined by spectrophotometric quantification (540 nm) of cellular protein content using sulforhodamine B assay[20]. Doxorubicin (0.025–25 mg/mL) was used as positive control. Three measurements were obtained at the beginning of incubation (time zero, T0) and 48 h post-incubation for compound-free (C) and tested (T) cells. Cell proliferation was determined according to the equation 100 × [(T − T0)/C − T0], for T0 < T ≤ C, and 100 × [(T − T0)/T0], for T ≤ T0 and a concentration-response curve for each cell line was plotted and, from these curves, GI50 (concentration causing 50% growth inhibition) and TGI (concentration that promotes total growth inhibition) were determined by means of non-linear regression analysis using software ORIGIN 8.0 (OriginLab Corporation) [20, 21] The average activity (mean of log GI50) of each compound tested was also determined using MS Excel software.

[2] = system: 786-0 (renal) cells; assay: Antiproliferative sulforhodamine B assay, 786-0; assay type: cell-based; conditions: Homo sapiens, 786-0 kidney, 48 h treatment, SRB; for IC100: read-out: Total growth inhibition (TGI)
Description: (§4) The in vitro antiproliferative activity of populene analogues 2a–e and 3a–e was investigated toward nine human tumor cell lines [CNS (U251), breast (MCF-7), ovarian (NCI-ADR/RES, OVCAR-03), renal (786-0), non-small cell lung (NCI-H460), prostate (PC-3), colon (HT-29) and leukemia (k-562)] and one human normal cell line (HaCat, human keratinocytes). The populene D analogues were tested at concentrations between 0.25 and 250 µg/mL and doxorubicin (DOX 0.025–25 µg/mL) was used as positive control. […] To analyze the GI50 parameter, mean log GI50 was calculated by conversion of the GI50 values for each tumor cell line tested (not including the normal cell line HaCat) against a test compound and then these values were averaged.
as §2, §3

[3] = system: U251 (glioma) cells; assay: Antiproliferative sulforhodamine B assay, U251; assay type: cell-based; conditions: Homo sapiens, U-251, 48 h treatment, SRB; for IC100: read-out: Total growth inhibition (TGI)
Description: as §4, §2, §3

[4] = system: MCF-7 (breast) cells; assay: Antiproliferative sulforhodamine B assay, MCF-7; assay type: cell-based; conditions: Homo sapiens, MCF7, MCF-7 mammary, 48 h treatment, SRB; for IC100: read-out: Total growth inhibition (TGI)
Description: as §4, §2, §3

[5] = system: HaCat (immortalized human keratinocytes); assay: Antiproliferative sulforhodamine B assay, HaCat normal cell line; assay type: cell-based; conditions: 48 h treatment, SRB
Description: as §4, §2, §3

[6] = as above; assay type: cell-based, human; conditions: human; HaCat normal immortalized keratinocytes, 48 h treatment, SRB
Description: as §4, §2, §3

[7] = system: K-562 (leukemia) cells; assay: Antiproliferative sulforhodamine B assay, K-562; assay type: cell-based; conditions: Homo sapiens, K562, 48 h treatment, SRB; for IC100: read-out: Total growth inhibition (TGI)
Description: as §4
(§5) Cells in 96-well plates (100 μL cells/well) were exposed to various concentrations of compounds 2a–d and 3a–d diluted in DMSO (0.25, 2.5, 25 and 250 μg/mL) at 37 °C, 5% of CO2 for 48 h. […] Afterwards cells were fixed with 50% trichloroacetic acid and cell proliferation determined by spectrophotometric quantification (540 nm) of cellular protein content using sulforhodamine B assay[20]. Doxorubicin (0.025–25 mg/mL) was used as positive control. Three measurements were obtained at the beginning of incubation (time zero, T0) and 48 h post-incubation for compound-free (C) and tested (T) cells. Cell proliferation was determined according to the equation 100 × [(T − T0)/C − T0], for T0 < T ≤ C, and 100 × [(T − T0)/T0], for T ≤ T0 and a concentration-response curve for each cell line was plotted and, from these curves, GI50 (concentration causing 50% growth inhibition) and TGI (concentration that promotes total growth inhibition) were determined by means of non-linear regression analysis using software ORIGIN 8.0 (OriginLab Corporation) [20, 21] The average activity (mean of log GI50) of each compound tested was also determined using MS Excel software.

[8] = system: NCI-ADR/RES (ovarian expressing phenotype multiple drugs resistance) cells; assay: Antiproliferative sulforhodamine B assay, NCI-ADR/RES; assay type: cell-based; conditions: Homo sapiens, NCI-ADR/RES drug resistant ovary, 48 h treatment, SRB; for IC100: read-out: Total growth inhibition (TGI)
Description: as §4, §2, §3

[9] = system: HT-29 (colon) cells; assay: Antiproliferative sulforhodamine B assay, HT-29; assay type: cell-based; conditions: Homo sapiens, 48 h treatment, SRB; for IC100: read-out: Total growth inhibition (TGI)
Description: as §1, §2, §3

[10] = system: nine human tumor cell lines; assay: Average antiproliferative activity over the tumor cell line panel (NCI criteria); assay type: cell-based; conditions: for GI50: Homo sapiens, 48 h; for Cytostatic activity classified in words by NCI criteria on mean logGI50: weak 1.1-1.5, moderate 0-1.1, potent <0, inactive >1.5
Description: as §4, §5

[11] = system: OVCAR-3 (ovarian) cells; assay: Antiproliferative sulforhodamine B assay, OVCAR-3; assay type: cell-based; conditions: Homo sapiens, OVCAR-3 ovary, 48 h treatment, SRB; for IC100: read-out: Total growth inhibition (TGI)
Description: as §1, §2, §3

[12] = system: NCI-H460 (lung, non-small cells) cells; assay: Antiproliferative sulforhodamine B assay, NCI-H460; conditions: for GI50: Homo sapiens, NCI-H460, 48 h; for Total growth inhibition (TGI): NCI-H460 lung, 48 h treatment, SRB
Description: as §1, §2, §3

[13] = average of logGI50 (GI50 in μg/mL) over tumor cell lines tested, not including HaCat, read-out: Mean logGI50 (converted)
[14] = class symbol by NCI's criteria on mean logGI50, read-out: Mean logGI50 activity class (NCI's criteria)

Structure (SMILES) | GI50 [1] [µg/mL] | IC100 [1] [µg/mL] | GI50 [2] [µg/mL] | IC100 [2] [µg/mL] | GI50 [3] [µg/mL] | IC100 [3] [µg/mL] | GI50 [4] [µg/mL] | IC100 [4] [µg/mL] | Total growth inhibition (TGI) [5] [µg/mL] | GI50 at 48 h [6] [µg/mL] | GI50 [7] [µg/mL] | IC100 [7] [µg/mL] | GI50 [8] [µg/mL] | IC100 [8] [µg/mL] | GI50 [9] [µg/mL] | IC100 [9] [µg/mL] | GI50 [10, 13] [µg/mL] | GI50 [10, 14] [µg/mL] | GI50 [11] [µg/mL] | IC100 [11] [µg/mL] | further results
COc1cccc2c1CCC1=C2C(C)COC1(C)C (centres unmarked) [2a, 4,5,6-Tetrahydro-7-methoxy-1,4,4-trimethyl-1H-benzo[f]isochromene] | 25 (≈ 96.8 µM) | 64.6 | 25 (≈ 96.8 µM) | 50.6 | 25 (≈ 96.8 µM) | 52 | 25 (≈ 96.8 µM) | 51.3 | 66.9 | 25 (≈ 96.8 µM) | 3.1 (≈ 12 µM) | > 250 | 25 (≈ 96.8 µM) | 83.5 | 25 (≈ 96.8 µM) | 39.1 | 14.8 (≈ 57.2 µM) | 12.6 to 31.6 (≈ 48.7 to 122 µM) | 25 (≈ 96.8 µM) | 52.3 | melting point: 65 to 67 °C
COc1ccc2c(c1)CCC1=C2C(C)COC1(C)C (centres unmarked) [2b, 2,4,5,6-Tetrahydro-8-methoxy-1,4,4-trimethyl-1H-benzo[f]isochromene] | 27 (≈ 105 µM) | 41.4 | 25.5 (≈ 98.7 µM) | 44 | 24.6 (≈ 95.2 µM) | 53.5 | 23.2 (≈ 89.8 µM) | 46.9 | 54.4 | 26.1 (≈ 101 µM) | 9.6 (≈ 37.2 µM) | > 250 | 26.8 (≈ 104 µM) | 104 | 6.6 (≈ 25.5 µM) | 33 | 15.1 (≈ 58.6 µM) | 12.6 to 31.6 (≈ 48.7 to 122 µM) | 24.5 (≈ 94.8 µM) | 56.2 | melting point: 89.5 to 91.3 °C
COc1ccc2c(c1)C1=C(CC2)C(C)(C)OCC1C (centres unmarked) [2c, 2,4,5,6-Tetrahydro-9-methoxy-1,4,4-trimethyl-1H-benzo[f]isochromene] | 25 (≈ 96.8 µM) | 69.2 | 25 (≈ 96.8 µM) | 36.1 | 25 (≈ 96.8 µM) | 40 | 25 (≈ 96.8 µM) | 45.3 | 32.0 | 25 (≈ 96.8 µM) | 25 (≈ 96.8 µM) | 128 | 25 (≈ 96.8 µM) | 66.3 | 25 (≈ 96.8 µM) | 41.8 | 16.2 (≈ 62.8 µM) | 12.6 to 31.6 (≈ 48.7 to 122 µM) | 25 (≈ 96.8 µM) | 67 | 
COc1cc2c(cc1OC)C1=C(CC2)C(C)(C)OCC1C (centres unmarked) [2d, 2,4,5,6-Tetrahydro-8,9-dimethoxy-1,4,4-trimethyl-1H-benzo[f]isochromene] | 71.4 (≈ 248 µM) | > 250 | 45.8 (≈ 159 µM) | > 250 | > 250 | > 250 | 38.8 (≈ 135 µM) | > 250 | >250 | > 250 | 84.6 (≈ 293 µM) | > 250 | 101 (≈ 349 µM) | > 250 | 23.1 (≈ 80.1 µM) | > 250 | > 50.1 | > 31.6 | 193 (≈ 671 µM) | > 250 | melting point: 115 to 117 °C; Cytostatic activity classified in words by NCI criteria on mean logGI50 [10]: inactive
COc1cc2c(cc1O)C1=C(CC2)C(C)(C)OCC1C (centres unmarked) [3d, 8-Methoxy-1,4,4-trimethyl-1,4,5,6-tetrahydro-2H-benzo[f]isochromen-9-ol] |  |  | 24.1 (≈ 87.8 µM) | 47.8 | 23.1 (≈ 84.2 µM) | 45.9 | 24.6 (≈ 89.7 µM) | 58.2 | 160.7 | 4.2 (≈ 15.3 µM) |  |  | 5.2 (≈ 19 µM) | 37.6 | 6 (≈ 21.9 µM) | 32.3 | 14.5 (≈ 52.7 µM) | 12.6 to 31.6 (≈ 45.9 to 115 µM) | 24.3 (≈ 88.6 µM) | 69.9 | melting point: 141 to 143 °C; Cytostatic activity classified in words by NCI criteria on mean logGI50 [10]: weak; GI50 [12]: 45.1 µg/mL (≈ 164 µM); Total growth inhibition (TGI) [12]: >250 µg/mL
CC1COC(C)(C)C2=C1c1cc(O)c(O)cc1CC2 (centres unmarked) [3e, 1,4,4-Trimethyl-1,4,5,6-tetrahydro-2H-benzo[f]isochromene-8,9-diol] |  |  | 5.6 (≈ 21.5 µM) | 19.4 | 19.6 (≈ 75.3 µM) | 28.4 | 5.5 (≈ 21.1 µM) | 41.6 | >250 | 4.2 (≈ 16.1 µM) |  |  | 5.7 (≈ 21.9 µM) | > 250 | 19.5 (≈ 74.9 µM) | 39 | 8.13 (≈ 31.2 µM) | 1 to 12.6 (≈ 3.84 to 48.4 µM) | 3.9 (≈ 15 µM) | 34.4 | melting point: 122 to 123 °C; Cytostatic activity classified in words by NCI criteria on mean logGI50 [10]: moderate; GI50 [12]: 17.4 µg/mL (≈ 66.8 µM); Total growth inhibition (TGI) [12]: >250 µg/mL
COc1cccc2c1C(=O)c1c(O)c3c(c(O)c1C2=O)C[C@@](O)(C(=O)CO)C[C@@H]3O[C@H]1C[C@H](N)[C@H](O)[C@H](C)O1 [Doxorubicine, doxorubicin, reference compound] | 0.27 (≈ 0.497 µM) | 4.4 | 0.04 (≈ 0.0736 µM) | 0.62 | 0.062 (≈ 0.114 µM) | 1.1 | 0.21 (≈ 0.386 µM) | 8.8 | 0.67 | 0.23 (≈ 0.423 µM) | 0.4 (≈ 0.736 µM) | 25 | 1.3 (≈ 2.39 µM) | 25 | 0.22 (≈ 0.405 µM) | 25 | 0.166 (≈ 0.305 µM) | < 1 | 0.26 (≈ 0.478 µM) | 3.9 | GI50 [12]: < 0.025 µg/mL; Total growth inhibition (TGI) [12]: 0.025 µg/mL
